Reference: US20070207984A1, “Cyclohexylamino Benzene, Pyridine, and Pyridazine Derivatives” (priority 2006, published 2007)

Legend:
[1] = tested on: HSP-90 (heat shock protein 90); assay: Determination of affinity for HSP-90 (elution from purine affinity column); type: binding; set-up: key: A stands for very high; B for high; C for moderate; settings: purine affinity column loaded with organ tissue proteins; eluted with 20μM, 100 μM, and 500 μM of test compound; densitometry
Description: Affinity of test compounds for HSP-90 was determined as follows: Protein mixtures obtained from a variety of organ tissues (for example: spleen, liver and lung) were reversibly bound to a purine affinity column to capture purine-binding proteins, especially HSP-90. The purine affinity column was washed several times, and then eluted with 20μM, 100 μM, and 500 μM of test compound. Compounds of Formula I elute HP-90 in a dose-dependent manner vs. a control elution using dimethylsulfoxide. The elution profile of Formula I compounds was determined by 1-dimensional SDS polyacrylamide gel electrophoresis. Gels were stained with a fluorescent stain such as sypro ruby (a highly sensitive fluorescent protein stain that can readily detect less than 1 fmol of total protein, i.e., less than 0.04 ng for a 40 kDa protein) or silver nitrate. The gels were imaged using a standard flat bed gel imager and the amount of protein estimated by densitometry. The percent of HSP-90 protein eluted from the column at each concentration was determined and IC50 values were calculated from these estimates. The identity of a band containing HSP-90 was determined by protein sequencing using mass spectroscopy.
Compounds of the invention are inhibitors of HSP-90 (heat shock protein 90). Several exemplary compounds useful in the methods of the invention are listed below.

PC-3 cell proliferation = assay: Cell proliferation assay (WST-1), PC-3 cells; type: cell-based; settings: Homo sapiens, WST-1 optical density at 450 nm, growth vs DMSO (100%) and 10 μM Actinomycin D (0%), read-out: inhibitory activity against PC-3 cell proliferation (IC50 range)
Description: A panel of cancer cell lines was obtained from the DCTP Tumor Repository, National Cancer Institute (Frederick, Md.) or ATCC (Rockville, Md.). Cell cultures were maintained in Hyclone RPMI 1640 medium (Logan, Utah) supplemented with 10% fetal bovine serum and 20 mM HEPES buffer, final pH 7.2, at 37° C. with a 5% CO2 atmosphere. Cultures were maintained at sub-confluent densities. Human umbilical vein endothelial cells (HUVEC) were purchased from Clonetics, a division of Cambrex (Walkersville, Md.). Cultures were established from cryopreserved stocks using Clonetics EGM-2 medium supplemented with 20 mM HEPES, final pH 7.2, at 37° C. with a 5% CO2 atmosphere.
For proliferation assays, cells were seeded with the appropriate medium into 96 well plates at 1,000-2,500 cells per well, depending on the cell line, and were incubated overnight. The following day, test compound, DMSO solution (negative control), or Actinomycin D (positive control) was added to the appropriate wells as 10× concentrated stocks prepared in phosphate buffered saline. The cell plates were then incubated for an additional 2-5 days, depending on the cell line, to allow proliferation to occur. To measure cell density, 50 μL of WST-1 solution (Roche Applied Science, IN) diluted 1:5 in phosphate buffered saline was added to each well, and the cells incubated for an additional 1-5 hrs., again depending on the cell line. Optical density was determined for each well at […] using a Tecan GeniosPro plate reader (RTP, NC). The percentage of cell growth was determined by comparing the cell growth in the presence of test compounds to the cells treated with DMSO vehicle (control, 100% growth) and cells treated with Actinomycin D (10 μM, 0% growth).
Immediately after the WST-1 determination, the medium was removed from the PC-3, NCI-H460 and HUVEC cell lines, and the plates stored at −80° C. Using these assay plates, relative amounts of DNA in each well were determined using the Cyquant DNA assay kit from […] (Eugene, Oreg.) following the manufacturer's directions. Results for each compound treatment were compared to DMSO vehicle control (100%) and 10 μM Actinomycin D treated cells (0%).
Several exemplary compounds useful in the methods of the invention are listed below.

Compound | relative binding affinity to HSP-90 [1] | IC50 (PC-3 cell proliferation) [nM]
Cc1nn(-c2ccc(C(N)=O)c(NC3CCC(OC(=O)CCNC(=O)OC(C)(C)C)CC3)c2)c2c1C(=O)CC(C)(C)C2 (stereo not drawn) [drawing 94] | A | –
CS(=O)(=O)O.Cc1nn(-c2ccc(C(N)=O)c(NC3CCC(OC(=O)CCN)CC3)c2)c2c1C(=O)CC(C)(C)C2 (stereo not drawn) | A | –
CC1(C)CC(=O)c2c(C(F)(F)F)nn(-c3ccc(C(N)=O)c(NC4CCC(OC(=O)CCNC(=O)[C@@H](N)CCCN)CC4)c3)c2C1 (stereo partly drawn) | – | < 500
CC1(C)CC(=O)c2c(C(F)(F)F)nn(-c3ccc(C(N)=O)c(NC4CCC(OC(=O)CCNC(=O)[C@@H](N)CCCN)CC4)c3)c2C1.CS(=O)(=O)O.CS(=O)(=O)O (stereo partly drawn) | A | –
CC1(C)CC(=O)c2c(C(F)(F)F)nn(-c3ccc(C(N)=O)c(NC4CCC(OC(=O)[C@@H](N)CCCCN)CC4)c3)c2C1 (stereo partly drawn) | – | < 500
Cc1nn(-c2ccc(C(N)=O)c(NC3CCC(OC(=O)CCN)CC3)c2)c2c1C(=O)CC(C)(C)C2 (stereo not drawn) | – | 500 to 5000
Cc1nn(-c2ccc(C#N)c(Br)c2)c2c1C(=O)CC(C)(C)C2 [drawing 89] | – | 5000 to 50000
CC1(C)CC(=O)c2c(C(F)F)nn(-c3ccc(C(N)=O)c(N[C@H]4CC[C@H](O)CC4)c3)c2C1 [drawing 91] | A | –
CC1(C)CC(=O)c2c(C(F)(F)F)nn(-c3ccc(C(N)=O)c(NC4CCC(OC(=O)[C@@H](N)CCCCN)CC4)c3)c2C1.CS(=O)(=O)O.CS(=O)(=O)O (stereo partly drawn) | A | –
CC1(C)CC(=O)c2c(C(F)F)nn(-c3ccc(C(N)=O)c(N[C@H]4CC[C@H](O)CC4)c3)c2C1 [drawing 85] | – | < 500
Cc1nn(-c2ccc(C(N)=O)c(NC3CCC(OC(=O)CCNC(=O)OC(C)(C)C)CC3)c2)c2c1C(=O)CC(C)(C)C2 (stereo not drawn) [drawing 88] | – | < 500
Cc1nn(-c2ccc(C#N)c(Br)c2)c2c1C(=O)CC(C)(C)C2 [drawing 95] | C | –
